Results taken from patent US20210015793A1, “COMPOUNDS FOR TREATING CNS- AND NEURODEGENERATIVE DISEASES” (ETH ZURICH, priority 2018, published 2021).

How the values were obtained:
Mpp1 = assay: Immunoblot of Mpp1 protein content in PBMN cells of aged B6 mice; type: in vivo, mouse; settings: 18-month-old B6 mice treated for 15 months in drinking water
Text: For protein separation by SDS-PAGE (Laemmli system), the protein pellet can be dissolved in SDS-PAGE sample buffer supplemented with SDS. As an alternative, sample buffer for native gel electrophoresis can be added. According to the original protocol, the SDS-PAGE Laemmli sample buffer contains 2% SDS, 0.1 M DTT (or 5% mercaptoethanol). To improve disaggregation of aggregated proteins, the buffer can be supplemented without or with urea ranging from about 0 M-8 M, preferably about 6 M urea and incubated for about 10 min to 24 h, preferably about 90 min at room temperature. Proteins can be stored frozen (about […]) at a concentration ranging from about 0.01-100 mg/ml, preferably about 0.5 mg-1 mg/ml, for further use. It may be further desirable to dilute the solubilisate, for example, diluting the supernatant solubilisate by 1:1-1:20, preferably 1:5, in a suitable buffer as described above (preferably supplemented with protease inhibitors). Before immunoblot detection of proteins, proteins are separated. For separation of proteins, one- or two-dimensional SDS-PAGE can be applied. […]

[1] = Safety and tolerability in healthy human research participants (phase-1 study); type: in vivo
Protocol: Study design: The study was a three-part phase-1, randomized, placebo-controlled study of Compound-1F. The primary end-point was safety and tolerability. Secondary objectives were plasma pharmacokinetics data (part-1, part-2, part-3) and peripheral blood mononuclear cell MPP1 status (part-3).
The first part (part-1) was a single ascending dose-effect study with three cohorts of 4 healthy research participants each, who received a single dose of 20 mg, 40 mg or 60 mg in subsequent cohorts. Three drug-treated and one placebo-treated subjects were randomized in each cohort (2 males, 2 females; age: 35-65 years). After completion of safety assessment, blood was drawn for analysis of pharmacokinetics data.
In the second part (part-2) of the study, the daily dose was increased every two days until the final dose of 60 mg/day was reached, i.e. the daily dose was 20 mg on day-1 and day-2, 40 mg on day-3 and day-4, and 60 mg on day-5 until day-14. Blood was drawn before study begin for analysis of laboratory parameters and on day-14 for analysis of laboratory parameters and determination of pharmacokinetics data, at the indicated time points after administration of the last dose of 60 mg. All study participants (n=10; 7 males, 3 females; Caucasians; age: 37-66 years; 8 participants received drug, and two received placebo) were healthy and had the possibility to withdraw from the study at any time. All study participants wanted to complete the study.
In the third part (part-3) of the study, a cohort of 8 healthy elderly voluntary research participants (7 males, 1 female; age 60-73 years; all Caucasians) received a daily oral dose of 60 mg of Compound-1F for 28 days (6 participants received drug, 2 placebo). In part-3 of the study, blood was drawn before study begin for analysis of clinical laboratory parameters and MPP1 status, and on day-28 for analysis of laboratory parameters and MPP1 status, and 24 h after the last drug intake for measurement of serum concentration of Compound-1F. All participants of part-3 had the possibility to withdraw from the study at any time but all study participants wanted to complete the study.
The study participants were under the medical supervision of the Rabaa El Adaweya Medical Central Hospital, Cairo, Egypt (Clinical study director: Dr. Raafat Mahmood Fawzy). […] One participant in the placebo group and 1 participant in the drug treatment group (part-2 of the study) reported softer stools beginning on day-3 after drug/placebo intake. This side effect ended after completion of the study, and was most likely due to the intake of mannitol, which was used as an additive for formulation of study drug and placebo. There were no other adverse effects in part-1, part-2 and part-3 of the study.

[2] = healthy humans, 14 days of repeated once daily oral dosing

SMILES	Mpp1 protein content in PBMN cells (Mpp1)	clinical laboratory parameters and cardiovascular examination data (blood pressure, heart rate) ([1]; all research participants, during and after the study (observation period 4 weeks))	drug-related adverse events (safety assessment) ([1]; elderly participants, 28 days once daily 60 mg)	clinical laboratory findings ([1]; elderly participants, before and after 28 days of once daily 60 mg)	percentage of neutrophils and lymphocytes [1, 2]	total number of white blood cells [1, 2]	hematologic parameters (Hb, HCT, MCV, MCHC, RBCs) before vs after treatment ([1]; healthy humans, once daily 60 mg, 14 days of study)	treatment related adverse effects (safety assessment) ([1]; healthy humans, oral Compound-1F, single ascending dose 20-60 mg)	kidney (serum urea, creatinine) and liver (AST, ALT) function parameters ([1]; healthy humans, repeated once daily 60 mg/d)	participants in the drug treatment group reporting softer stools ([1]; part-2 of the study, beginning on day-3, attributed to mannitol)
O=C(C1=C(O)C(c2ccccc2)N(c2ccc3c(c2)OCO3)C1=O)C1CC1 (centres unmarked) [Compound-1, 1-(1,3-benzodioxol-5-yl)-4-(cyclopropane-carbonyl)-3-hydroxy-2-phenyl-2H-pyrrol-5-one]	significantly decreased the content of the senescence marker, Mpp1									
O=C(C1=C(O)C(c2ccc(F)cc2)N(c2ccc3c(c2)OCO3)C1=O)C1CC1 (centres unmarked) [Compound-1F, 1-(1,3-Benzodioxol-5-yl)-4-(cyclopropanecarbonyl)-2-(4-fluorophenyl)-3-hydroxy-2H-pyrrol-5-one]	significantly decreased the content of the senescence marker, Mpp1	within the normal range	no drug-related adverse events	within the normal range	within the normal range	not altered	not significantly different	no treatment related adverse effects	within the normal range	1 participant
